Patent publication US6884813B2, “Antimicrobial dihydrothiazine and dihydrothiopyran oxazolidinones” (Pharmacia & Upjohn Company, priority 2002, dated 2005)
≈ marks a conversion by molar mass, not a printed value.

Legend:
SPNE 9912 = experiment: Minimum inhibitory concentration (MIC) by agar dilution; type: cell-based; settings: Streptococcus pneumoniae, lowest concentration of drug that inhibits visible growth of the organism, strain SPNE 9912, read-out: Antibacterial Activity, Minimum Inhibitory Concentration (MIC μg/mL) SPNE 9912
Source text: Compounds of this invention have useful activity against a variety of organisms. The in vitro activity of compounds of this invention can be assessed by standard testing procedures such as the determination of minimum inhibitory concentration (MIC) by agar dilution as described in “Approved Standard. Methods for Dilution Antimicrobial Susceptibility Tests for Bacteria That Grow Aerobically”, 3rd. ed., published 1993 by the National Committee for Clinical Laboratory Standards, Villanova, Pa., USA. Minimum inhibitory concentration (MIC) refers to lowest concentration of drug (μg/mL) that inhibits visible growth of the organism. “- -” refers to the activity data is not available.

Compound | MIC (SPNE 9912) [µg/mL] | melting point [°C]
O=C(NC[C@H]1CN(c2cc(F)c(C3C=CS(=O)(=O)CC3)c(F)c2)C(=O)O1)C(Cl)Cl (stereo partly drawn) [Example 31, 2,2-dichloro-N-({(5S)-3-[4-(1,1-dioxido-3,4-dihydro-2H-thiopyran-4-yl)-3,5-difluorophenyl]-2-oxo-1,3-oxazolidin-5-yl}methyl)acetamide] | 0.5 (≈ 1.07 µM) | 
O=C(NC[C@H]1CN(c2ccc(N3C=CS(=O)(=O)CC3)cc2)C(=O)O1)C(Cl)Cl [Example 25, 2,2-dichloro-N-[[(5S)-3-[4-(2,3-dihydro-1,1-dioxido-4H-1,4-thiazin-4-yl)phenyl]-2-oxo-5-oxazolidinyl]methyl]acetamide] | 1 (≈ 2.3 µM) | 
O=C(NC[C@H]1CN(c2ccc(N3C=CS(=O)(=O)CC3)cc2)C(=O)O1)C(F)F [Example 26, N-[[(5S)-3-[4-(2,3-dihydro-1,1-dioxido-4H-1,4-thiazin-4-yl)phenyl]-2-oxo-5-oxazolidinyl]methyl]-2,2-difluoroacetamide] | 1 (≈ 2.49 µM) | 
CC(=O)NC[C@H]1CN(c2ccc(C3C=CS(=O)(=O)CC3)cc2)C(=O)O1 (stereo partly drawn) [Example 14, N-[[(5S)-3-[4-(3,4-dihydro-1,1-dioxido-2H-thiopyran-4-yl)phenyl]-2-oxo-5-oxazolidinyl]methyl]acetamide] | 1 (≈ 2.74 µM) | 187 to 189
O=C(NC[C@H]1CN(c2cc(F)c(N3C=CS(=O)(=O)CC3)c(F)c2)C(=O)O1)C(F)F [Example 29, N-[[(5S)-3-[4-(2,3-dihydro-1,1-dioxido-4H-1,4-thiazin-4-yl)-3,5-difluorophenyl]-2-oxo-5-oxazolidinyl]methyl]-2,2-difluoroacetamide] | 0.5 (≈ 1.14 µM) | 
COC(=O)NC[C@H]1CN(c2ccc(C3C=CS(=O)(=O)CC3)cc2)C(=O)O1 (stereo partly drawn) [Example 19, (S)-[[3-[4-(3,4-dihydro-1,1-dioxido-2H-thiopyran-4-yl)phenyl]-2-oxo-5-oxazolidinyl]methyl]carbamic acid, methyl ester] | 2 (≈ 5.26 µM) | 196 to 197
O=C1O[C@@H](CNC(=S)C(F)F)CN1c1cc(F)c(N2C=CS(=O)(=O)CC2)c(F)c1 [Example 27, N-[[(5S)-3-[4-(2,3-dihydro-1,1-dioxido-4H-1,4-thiazin-4-yl)-3,5-difluorophenyl]-2-oxo-5-oxazolidinyl]methyl]-2,2-difluoroethanethioamide] | 0.25 (≈ 0.551 µM) | 
CCC(=O)NC[C@H]1CN(c2ccc(C3C=CS(=O)(=O)CC3)cc2)C(=O)O1 (stereo partly drawn) [Example 18, N-[[(5S)-3-[4-(3,4-dihydro-1,1-dioxido-2H-thiopyran-4-yl)phenyl]-2-oxo-5-oxazolidinyl]methyl]propionamide] | 1 (≈ 2.64 µM) | 144 to 147
O=C(NC[C@H]1CN(c2ccc(C3C=CS(=O)(=O)CC3)cc2)C(=O)O1)C(Cl)Cl (stereo partly drawn) [Example 16, 2,2-dichloro-N-[[(5S)-3-[4-(3,4-dihydro-1,1-dioxido-2H-thiopyran-4-yl)phenyl]-2-oxo-5-oxazolidinyl]methyl]acetamide] | 0.25 (≈ 0.577 µM) | 159 to 161
O=C(NC[C@H]1CN(c2cc(F)c(N3C=CS(=O)(=O)CC3)c(F)c2)C(=O)O1)C(Cl)Cl [Example 28, 2,2-dichloro-N-[[(5S)-3-[4-(2,3-dihydro-1,1-dioxido-4H-1,4-thiazin-4-yl)-3,5-difluorophenyl]-2-oxo-5-oxazolidinyl]methyl]acetamide] | 0.5 (≈ 1.06 µM) | 
O=C1O[C@@H](CNC(=S)C(F)F)CN1c1ccc(N2C=CS(=O)(=O)CC2)cc1 [Example 24, N-[[(5S)-3-[4-(2,3-dihydro-1,1-dioxido-4H-1,4-thiazin-4-yl)phenyl]-2-oxo-5-oxazolidinyl]methyl]-2,2-difluoroethanethioamide] | 0.5 (≈ 1.2 µM) | 
O=C1O[C@@H](CNC(=S)C(F)F)CN1c1ccc(C2C=CS(=O)(=O)CC2)cc1 (stereo partly drawn) [Example 17, [[(5S)-3-[4-(3,4-dihydro-1,1-dioxido-2H-thiopyran-4-yl)phenyl]-2-oxo-5-oxazolidinyl]methyl]-2,2-difluoroethanethioamide] | 0.25 (≈ 0.6 µM) | 139 to 140
CC(=O)NC[C@H]1CN(c2cc(F)c(N3C=CS(=O)(=O)CC3)c(F)c2)C(=O)O1 [Example 8, N-[[(5S)-3-[4-(2,3-dihydro-1,1-dioxido-4H-1,4-thiazin-4-yl)-3,5-difluorophenyl]-2-oxo-5-oxazolidinyl]methyl]acetamide] | 0.5 (≈ 1.25 µM) | 

Continued, values first:

MIC (SPNE 9912) [µg/mL] | melting point [°C] | Compound
0.5 (≈ 1.25 µM) | 135 to 136 | O=C(NC[C@H]1CN(c2ccc(C3C=CS(=O)(=O)CC3)cc2)C(=O)O1)C(F)F (stereo partly drawn) [Example 15, N-[[(5S)-3-[4-(3,4-dihydro-1,1-dioxido-2H-thiopyran-4-yl)phenyl]-2-oxo-5-oxazolidinyl]methyl]-2,2-difluoroacetamide]
0.25 (≈ 0.654 µM) |  | CC(=O)NC[C@H]1CN(c2ccc(C3C=CS(=O)(=O)CC3)c(F)c2)C(=O)O1 (stereo partly drawn) [Example 5, N-[[(5S)-3-[4-(3,4-Dihydro-1,1-dioxido-2H-thiopyran-4-yl)-3-fluorophenyl]-2-oxo-5-oxazolidinyl]methyl]acetamide]
2 (≈ 4.95 µM) |  | O=C1O[C@@H](CNC(=O)C(F)(F)F)CN1c1ccc(C2C=CSCC2)c(F)c1 (stereo partly drawn) [Example 1, N-[[(5S)-3-[4-(3,4-dihydro-2H-thiopyran-4-yl)-3-fluorophenyl]-2-oxo-5-oxazolidinyl]methyl]-2,2,2-trifluoroacetamide]
0.5 (≈ 1.11 µM) | 148 to 150 | O=C(NC[C@H]1CN(c2ccc(C3C=CS(=O)(=O)CC3)c(F)c2)C(=O)O1)C(Cl)Cl (stereo partly drawn) [Example 11, 2,2-dichloro-N-[[(5S)-3-[4-(3,4-dihydro-1,1-dioxido-2H-thiopyran-4-yl)-3-fluorophenyl]-2-oxo-5-oxazolidinyl]methyl]acetamide]
1 (≈ 2.85 µM) |  | CC(=O)NC[C@H]1CN(c2ccc(C3C=CSCC3)c(F)c2)C(=O)O1 (stereo partly drawn) [Example 2, N-[[(5S)-3-[4-(3,4-dihydro-2H-thiopyran-4-yl)-3-fluorophenyl]-2-oxo-5-oxazolidinyl]methyl]acetamide]
0.25 (≈ 0.574 µM) |  | O=C1O[C@@H](CNC(=S)C(F)F)CN1c1ccc(N2C=CS(=O)(=O)CC2)c(F)c1 [Example 21, N-[[(5S)-3-[4-(2,3-dihydro-1,1-dioxido-4H-1,4-thiazin-4-yl)-3-fluorophenyl]-2-oxo-5-oxazolidinyl]methyl]-2,2-difluoroethanethioamide]
0.5 (≈ 1.36 µM) |  | CC(=S)NC[C@H]1CN(c2ccc(C3C=CSCC3)c(F)c2)C(=O)O1 (stereo partly drawn) [Example 3, N-[[(5S)-3-[4-(3,4-dihydro-2H-thiopyran-4-yl)-3-fluorophenyl]-2-oxo-5-oxazolidinyl]methyl]ethanethioamide]
1 (≈ 2.29 µM) |  | O=C(NC[C@H]1CN(c2cc(F)c(C3C=CS(=O)(=O)CC3)c(F)c2)C(=O)O1)C(F)F (stereo partly drawn) [Example 30, N-({(5S)-3-[4-(1,1-dioxido-3,4-dihydro-2H-thiopyran-4-yl)-3,5-difluorophenyl]-2-oxo-1,3-oxazolidin-5-yl}methyl)-2,2-difluoroacetamide]
1 (≈ 2.73 µM) |  | CC(=O)NC[C@H]1CN(c2ccc(C3C=C[S+]([O-])CC3)c(F)c2)C(=O)O1 (stereo partly drawn) [Example 4, N-[[(5S)-3-[4-(3,4-dihydro-1-oxido-2H-thiopyran-4-yl)-3-fluorophenyl]-2-oxo-5-oxazolidinyl]methyl]acetamide]
1 (≈ 2.5 µM) |  | CC(=O)NC[C@H]1CN(c2cc(F)c(C3C=CS(=O)(=O)CC3)c(F)c2)C(=O)O1 (stereo partly drawn) [Example 20, N-[[(5S)-3-[4-(3,4-dihydro-1,1-dioxido-2H-thiopyran-4-yl)-3,5-difluorophenyl]-2-oxo-5-oxazolidinyl]methyl]acetamide]
0.25 (≈ 0.553 µM) |  | O=C(NC[C@H]1CN(c2ccc(N3C=CS(=O)(=O)CC3)c(F)c2)C(=O)O1)C(Cl)Cl [Example 22, 2,2-dichloro-N-[[(5S)-3-[4-(2,3-dihydro-1,1-dioxido-4H-1,4-thiazin-4-yl)-3-fluorophenyl]-2-oxo-5-oxazolidinyl]methyl]acetamide]
0.5 (≈ 1.11 µM) |  | O=C1O[C@@H](CNC(=S)C(F)F)CN1c1cc(F)c(C2C=CS(=O)(=O)CC2)c(F)c1 (stereo partly drawn) [Example 32, N-({(5S)-3-[4-(1,1-dioxido-3,4-dihydro-2H-thiopyran-4-yl)-3,5-difluorophenyl]-2-oxo-1,3-oxazolidin-5-yl}methyl)-2,2-difluoroethanethioamide]
0.5 (≈ 1.3 µM) | 193 to 194 | CC(=O)NC[C@H]1CN(c2ccc(N3C=CS(=O)(=O)CC3)c(F)c2)C(=O)O1 [Example 7, N-[[(5S)-3-[4-(2,3-dihydro-1,1-dioxido-4H-1,4-thiazin-4-yl)-3-fluorophenyl]-2-oxo-5-oxazolidinyl]methyl]acetamide]
0.5 (≈ 1.2 µM) |  | O=C(NC[C@H]1CN(c2ccc(C3C=CS(=O)(=O)CC3)c(F)c2)C(=O)O1)C(F)F (stereo partly drawn) [Example 9, N-[[(5S)-3-[4-(3,4-dihydro-1,1-dioxido-2H-thiopyran-4-yl)-3-fluorophenyl]-2-oxo-5-oxazolidinyl]methyl]-2,2-difluoroacetamide]
0.25 (≈ 0.654 µM) |  | CC(=S)NC[C@H]1CN(c2ccc(C3C=C[S+]([O-])CC3)c(F)c2)C(=O)O1 (stereo partly drawn) [Example 6, N-[[(5S)-3-[4-(3,4-dihydro-1-oxido-2H-thiopyran-4-yl)-3-fluorophenyl]-2-oxo-5-oxazolidinyl]methyl]ethanethioamide]
0.25 (≈ 0.575 µM) |  | O=C1O[C@@H](CNC(=S)C(F)F)CN1c1ccc(C2C=CS(=O)(=O)CC2)c(F)c1 (stereo partly drawn) [Example 10, N-[[(5S)-3-[4-(3,4-dihydro-1,1-dioxido-2H-thiopyran-4-yl)-3-fluorophenyl]-2-oxo-5-oxazolidinyl]methyl]-2,2-difluoroethanethioamide]
0.5 (≈ 1.19 µM) |  | O=C(NC[C@H]1CN(c2ccc(N3C=CS(=O)(=O)CC3)c(F)c2)C(=O)O1)C(F)F [Example 23, N-[[(5S)-3-[4-(2,3-dihydro-1,1-dioxido-4H-1,4-thiazin-4-yl)-3-fluorophenyl]-2-oxo-5-oxazolidinyl]methyl]-2,2-difluoroacetamide]
